26 molecules from patent US20100204224A1, “AZACYCLIC COMPOUNDS AS INHIBITORS OF SENSORY NEURONE SPECIFIC SODIUM CHANNELS” (priority 2005, published 2010) can be followed below.

The target of one test is T1, human Nav1.8 (hNav1.8) ion channel (Homo sapiens, UniProt Q9Y5Y9).
T1 construct: expressed in transfected cells
T1 sequence (Q9Y5Y9 whole entry): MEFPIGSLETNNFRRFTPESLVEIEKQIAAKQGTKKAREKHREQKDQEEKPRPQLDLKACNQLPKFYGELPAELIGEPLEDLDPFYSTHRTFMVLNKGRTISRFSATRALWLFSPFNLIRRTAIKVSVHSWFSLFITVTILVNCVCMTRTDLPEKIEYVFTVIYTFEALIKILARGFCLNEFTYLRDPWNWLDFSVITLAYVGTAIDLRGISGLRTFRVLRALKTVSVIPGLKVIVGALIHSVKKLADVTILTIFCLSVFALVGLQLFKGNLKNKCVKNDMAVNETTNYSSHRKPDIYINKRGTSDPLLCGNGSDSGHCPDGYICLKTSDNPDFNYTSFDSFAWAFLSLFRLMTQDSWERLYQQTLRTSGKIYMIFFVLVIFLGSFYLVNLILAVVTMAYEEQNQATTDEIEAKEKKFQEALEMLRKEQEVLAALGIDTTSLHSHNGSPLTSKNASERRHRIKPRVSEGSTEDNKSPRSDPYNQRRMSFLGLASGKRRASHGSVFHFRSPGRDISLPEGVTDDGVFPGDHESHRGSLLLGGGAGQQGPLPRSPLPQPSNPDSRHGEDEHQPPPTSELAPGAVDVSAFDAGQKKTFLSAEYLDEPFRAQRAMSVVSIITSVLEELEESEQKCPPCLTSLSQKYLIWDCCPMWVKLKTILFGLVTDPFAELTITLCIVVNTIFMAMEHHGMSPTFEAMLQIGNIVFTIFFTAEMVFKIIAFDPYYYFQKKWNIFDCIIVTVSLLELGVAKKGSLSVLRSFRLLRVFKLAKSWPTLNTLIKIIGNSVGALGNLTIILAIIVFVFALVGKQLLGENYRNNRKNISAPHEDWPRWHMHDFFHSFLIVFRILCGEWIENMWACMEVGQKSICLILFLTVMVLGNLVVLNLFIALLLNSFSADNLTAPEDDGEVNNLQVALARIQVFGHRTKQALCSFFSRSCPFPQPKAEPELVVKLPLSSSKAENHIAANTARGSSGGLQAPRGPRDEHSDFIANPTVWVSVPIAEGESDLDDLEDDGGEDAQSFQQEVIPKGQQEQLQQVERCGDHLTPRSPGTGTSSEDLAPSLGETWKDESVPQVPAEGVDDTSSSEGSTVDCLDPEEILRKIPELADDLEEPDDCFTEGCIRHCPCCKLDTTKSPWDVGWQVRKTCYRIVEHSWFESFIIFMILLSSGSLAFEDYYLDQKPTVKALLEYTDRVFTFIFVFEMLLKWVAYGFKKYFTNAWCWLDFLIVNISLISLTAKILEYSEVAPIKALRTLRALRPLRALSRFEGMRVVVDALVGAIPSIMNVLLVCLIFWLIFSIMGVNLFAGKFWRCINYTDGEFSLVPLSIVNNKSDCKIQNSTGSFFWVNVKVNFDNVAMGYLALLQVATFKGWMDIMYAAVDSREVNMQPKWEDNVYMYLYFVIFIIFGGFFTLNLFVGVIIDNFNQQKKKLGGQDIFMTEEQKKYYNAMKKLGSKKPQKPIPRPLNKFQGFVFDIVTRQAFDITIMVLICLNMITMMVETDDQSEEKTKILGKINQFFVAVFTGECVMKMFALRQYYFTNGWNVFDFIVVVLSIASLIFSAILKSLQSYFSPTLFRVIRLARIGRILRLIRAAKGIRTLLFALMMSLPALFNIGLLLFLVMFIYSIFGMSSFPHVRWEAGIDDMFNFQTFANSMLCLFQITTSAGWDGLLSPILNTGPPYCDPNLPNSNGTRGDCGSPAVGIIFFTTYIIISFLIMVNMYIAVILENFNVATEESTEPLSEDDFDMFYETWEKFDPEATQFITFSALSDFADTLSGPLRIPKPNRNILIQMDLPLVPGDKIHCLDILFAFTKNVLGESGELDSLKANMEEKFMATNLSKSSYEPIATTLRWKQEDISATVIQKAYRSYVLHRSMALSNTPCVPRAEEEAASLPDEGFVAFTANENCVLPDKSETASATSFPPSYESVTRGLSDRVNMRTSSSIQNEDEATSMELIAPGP
Put plainly: Inhibition of human Nav1.8 stably expressed in SH-SY-5Y cells (membrane potential dye fluorescence assay). Conditions: SH-SY-5Y hNav1.8 cells; FLIPR membrane potential dye; 10 μM pyrethroid, 250 nM TTX; test concentration range 100 μM-0.05 μM; read-out: hNav1.8 IC50. Type of test: cell-based. As for the experimental part: Inhibition of Human Nav1.8 stably expressed in SH-SY-5Y Cells
A SH-SY-5Y neuroblastoma cell line stably expressing the human Nav1.8 (hNav1.8) ion channel was constructed. This cell line has been used to develop a medium to high throughput assay for determining the ability of test compounds to inhibit membrane depolarisation mediated via the hNav1.8 channel.
SH-SY-5Y hNav1.8 are grown in adherent monolayer culture using 50:50 Ham's F-12/EMEM tissue culture medium supplemented with 15% (v/v) foetal bovine serum; 2 mM L-glutamine, 1% NEAR and 600 μg·ml^−1 Geneticin sulphate. Cells are removed from the tissue culture flask using trypsin/EDTA and re-plated into black walled, clear bottom 96-well assay plates at 50,000 cells·well^−1 24 hours prior to assay.
On the day of assay the cell assay plates are washed to remove cell culture medium using a sodium free assay buffer (145 mM tetramethyl ammonium chloride; 2 mM calcium chloride; 0.8 mM magnesium chloride hexahydrate; 10 mM HEPES; 10 mM glucose; 5 mM potassium chloride, pH 7.4). Fluorescent membrane potential dye solution (FLIPR™ membrane potential dye, Molecular Devices Corporation), containing 10 μM of a pyrethroid to prevent channel inactivation and 250 nM tetrodotoxin (TTX) to reduce interference from TTX-sensitive sodium channels present in the cell line. Test compound, initially dissolved in dimethyl sulfoxide but further diluted in sodium free buffer, is added to achieve the final test concentration range of 100 μM-0.05 μM.
Cell plates are incubated for 30 minutes at room temperature to allow equilibration of dye and test compound. Plates are then transferred to a fluorescence plate reader for fluorescence measurement using an excitation wavelength of 530 nm whilst measuring fluorescence emission at 565 nm. Baseline fluorescence levels are first determined before the addition of a sodium containing buffer (220 mM sodium chloride; 2 mM calcium chloride; 0.8 mM magnesium chloride hexahydrate; 10 mM HEPES; 10 mM glucose; 5 mM potassium chloride. pH 7.4) to cause membrane depolarisation in those cells where channel block has not been effected (final sodium concentration=72.5 mM). Membrane depolarisation is registered by an increase in fluorescence emission at 565 nm.
The change in fluorescence seen in each test well upon the addition of sodium containing buffer is calculated relative to the baseline fluorescence for that well. This figure is then used for calculating the IC50 for each test compound.
A word on the IC50: it is the concentration that gives 50% inhibition. Consider “1-{5-[1-(2,5-Dichloro-phenyl)-ethyl]-2,5-diaza-bicyclo[2.2.1]hept-2-yl}-2-[4-(4-fluoro-phenoxy)-phenyl]-ethanone [Example 157]”, for which the IC50 was no less than 30000 nM.

In the case of `CC(c1ccccc1Cl)N1CC2CC1CN2C(=O)Nc1ccc(Oc2ccccc2)cc1` (single isomer, unassigned) [Example 11, 5-[1-(2-Chloro-phenyl)-ethyl]-2,5-diaza-bicyclo[2.2.1]heptane-2-carboxylic acid (4-phenoxy-phenyl)-amide], the half-inhibitory concentration (IC50) is 1800 nM.

On to `CC(c1ccccc1Cl)N1CC2CC1CN2C(=O)Nc1ccc(Oc2ccccc2)cc1` (single isomer, unassigned) [Example 12, 5-[1-(2-Chloro-phenyl)-ethyl]-2,5-diaza-bicyclo[2.2.1]heptane-2-carboxylic acid (4-phenoxy-phenyl)-amide], for which the IC50 was 360 nM.

Consider `CC(c1ccccc1C(F)(F)F)N1CC2CC1CN2C(=O)Nc1ccc(C(F)(F)F)cc1` (single isomer, unassigned) [Example 54, 5-[1-(2-Trifluoromethyl-phenyl)-ethyl]-2,5-diaza-bicyclo[2.2.1]heptane-2-carboxylic acid (4-trifluoromethyl-phenyl)-amide], for which the half-maximal inhibitory concentration (IC50) was determined as 1750 nM.

On to `CC(c1ccccc1C(F)(F)F)N1CC2CC1CN2C(=O)Nc1ccc(C(F)(F)F)cc1` (single isomer, unassigned) [Example 56, 5-[1-(2-Trifluoromethyl-phenyl)-ethyl]-2,5-diaza-bicyclo[2.2.1]heptane-2-carboxylic acid (4-trifluoromethyl-phenyl)-amide], for which the half-inhibitory concentration (IC50) was 7910 nM.

With `CC(c1ccccc1C(F)(F)F)N1CC2CC1CN2C(=O)Nc1ccc(Oc2ccccc2)cc1` (single isomer, unassigned) [Example 60, 5-[1-(2-Trifluoromethyl-phenyl)-ethyl]-2,5-diaza-bicyclo[2.2.1]heptane-2-carboxylic acid (4-phenoxy-phenyl)-amide], the 50% inhibitory concentration (IC50) worked out at 1480 nM.

On to `CC(c1ccccc1C(F)(F)F)N1CC2CC1CN2C(=O)Nc1ccc(Oc2ccccc2)cc1` (single isomer, unassigned) [Example 62, 5-[1-(2-Trifluoromethyl-phenyl)-ethyl]-2,5-diaza-bicyclo[2.2.1]heptane-2-carboxylic acid (4-phenoxy-phenyl)-amide], for which the IC50 worked out at 17200 nM.

In the case of `CC(c1ccccc1Cl)N1CC2CC1CN2C(=O)Nc1ccc(Oc2ccc(F)cc2)cc1` (single isomer, unassigned) [Example 73, 5-[1-(2-Chloro-phenyl)-ethyl]-2,5-diaza-bicyclo[2.2.1]heptane-2-carboxylic acid [4-(4-fluoro-phenoxy)-phenyl]-amide], the IC50 worked out at 1130 nM.

Take `CC(c1ccccc1Cl)N1CC2CC1CN2C(=O)Nc1ccc(Oc2ccc(F)cc2)cc1` (single isomer, unassigned) [Example 76, 5-[1-(2-Chloro-phenyl)-ethyl]-2,5-diaza-bicyclo[2.2.1]heptane-2-carboxylic acid [4-(4-fluoro-phenoxy)-phenyl]-amide]: the half-inhibitory concentration (IC50) is 270 nM.

Turning to `CC(c1ccccc1Cl)N1CC2CC1CN2C(=O)c1ccc(Oc2ccc(F)cc2)c(F)c1` (single isomer, unassigned) [Example 176, {5-[1-(2-Chloro-phenyl)-ethyl]-2,5-diaza-bicyclo[2.2.1]hept-2-yl}-[3-fluoro-4-(4-fluoro-phenoxy)-phenyl]-methanone], the IC50 turned out to be 430 nM.

As to `CC(c1ccccc1Cl)N1CC2CC1CN2C(=O)c1ccc(Oc2ccc(F)cc2)c(F)c1` (single isomer, unassigned) [Example 177, {5-[1-(2-Chloro-phenyl)-ethyl]-2,5-diaza-bicyclo[2.2.1]hept-2-yl}-[3-fluoro-4-(4-fluoro-phenoxy)-phenyl]-methanone], the IC50 was 740 nM.

Consider `Cc1ccsc1CN1CC2CC1CN2C(=O)Nc1ccc(Oc2ccccc2)cc1` (centres unmarked) [Example 1, 5-(3-Methyl-thiophen-2-ylmethyl)-2,5-diaza-bicyclo[2.2.1]heptane-2-carboxylic acid (4-phenoxy-phenyl)-amide], for which the concentration for half-maximal inhibition (IC50) was 410 nM.

With `Cc1ccsc1CN1CC2CC1CN2C(=O)Nc1ccc(Oc2ccccc2)nc1` (centres unmarked) [Example 2, 5-(3-Methyl-thiophen-2-ylmethyl)-2,5-diaza-bicyclo[2.2.1]heptane-2-carboxylic acid (6-phenoxy-pyridin-3-yl)-amide], the concentration for half-maximal inhibition (IC50) is 3740 nM.

For `CCCCOc1ccc(NC(=O)N2CC3CC2CN3Cc2sccc2C)cc1` (centres unmarked) [Example 3, 5-(3-Methyl-thiophen-2-ylmethyl)-2,5-diaza-bicyclo[2.2.1]heptane-2-carboxylic acid (4-butoxy-phenyl)-amide], the IC50 was 1030 nM.

For `Cc1ccccc1C(C)N1CC2CC1CN2C(=O)Nc1ccc(Oc2ccccc2)cc1` (centres unmarked) [Example 4, 5-(1-o-Tolyl-ethyl)-2,5-diaza-bicyclo[2.2.1]heptane-2-carboxylic acid (4-phenoxy-phenyl)-amide], the 50% inhibitory concentration (IC50) is 320 nM.

Regarding `CCCCOc1ccc(NC(=O)N2CC3CC2CN3C(C)c2ccccc2C)cc1` (centres unmarked) [Example 5, 5-(1-o-Tolyl-ethyl)-2,5-diaza-bicyclo[2.2.1]heptane-2-carboxylic acid (4-butoxy-phenyl)-amide], the IC50 worked out at 570 nM.

On to `Cc1ccccc1C(C)N1CC2CC1CN2C(=O)Nc1ccc(C(F)(F)F)cc1` (centres unmarked) [Example 6, 5-(1-o-Tolyl-ethyl)-2,5-diaza-bicyclo[2.2.1]heptane-2-carboxylic acid (4-trifluoromethyl-phenyl)-amide], for which the IC50 turned out to be 990 nM.

As to `CC(c1ccc(F)cc1Cl)N1CC2CC1CN2C(=O)Nc1ccc(Oc2ccccc2)cc1` (centres unmarked) [Example 7, 5-[1-(2-Chloro-4-fluoro-phenyl)-ethyl]-2,5-diaza-bicyclo[2.2.1]heptane-2-carboxylic acid (4-phenoxy-phenyl)-amide], the IC50 amounted to 4320 nM.

As to `Cc1ccccc1C(C)N1CC2CC1CN2C(=O)Nc1cccc(Oc2ccccc2)c1` (centres unmarked) [Example 8, 5-(1-o-Tolyl-ethyl)-2,5-diaza-bicyclo[2.2.1]heptane-2-carboxylic acid (3-phenoxy-phenyl)-amide], the concentration for half-maximal inhibition (IC50) is 680 nM.

Turning to `CC(c1c(F)cccc1F)N1CC2CC1CN2C(=O)Nc1ccc(Oc2ccccc2)cc1` (centres unmarked) [Example 9, 5-[1-(2,6-Difluoro-phenyl)-ethyl]-2,5-diaza-bicyclo[2.2.1]heptane-2-carboxylic acid (4-phenoxy-phenyl)-amide], the 50% inhibitory concentration (IC50) is 870 nM.

Still in this test, the particulars now being: hNav1.8 IC50, SH-SY-5Y hNav1.8 cells; FLIPR membrane potential dye; 10 μM pyrethroid, 250 nM TTX; test concentration range 100 μM-0.05 μM.
As for `Cc1ccccc1C(C)N1CC2CC1CN2C(=O)Nc1ccc(Oc2ccc(F)cc2)cc1` (single isomer, unassigned) [Example 29, 5-(1-o-Tolyl-ethyl)-2,5-diaza-bicyclo[2.2.1]heptane-2-carboxylic acid [4-(4-fluoro-phenoxy)-phenyl]-amide], half-maximal inhibition (IC50) was put at 340 nM.

Molecule `Cc1ccccc1C(C)N1CC2CC1CN2C(=O)Nc1ccc(Oc2ccc(F)cc2)cc1` (single isomer, unassigned) [Example 74, 5-(1-o-Tolyl-ethyl)-2,5-diaza-bicyclo[2.2.1]heptane-2-carboxylic acid [4-(4-fluoro-phenoxy)-phenyl]-amide] had an IC50 of 110 nM.

Regarding `CC(c1ccc(F)cc1Cl)N1CC2CC1CN2C(=O)Cc1ccc(Oc2ccc(F)cc2)cc1` (single isomer, unassigned) [Example 161, 1-{5-[1-(2-Chloro-4-fluoro-phenyl)-ethyl]-2,5-diaza-bicyclo[2.2.1]hept-2-yl}-2-[4-(4-fluoro-phenoxy)-phenyl]-ethanone], the IC50 is 4750 nM.

`CC(c1ccc(F)cc1Cl)N1CC2CC1CN2C(=O)Cc1ccc(Oc2ccc(F)cc2)cc1` (single isomer, unassigned) [Example 162, 1-{5-[1-(2-Chloro-4-fluoro-phenyl)-ethyl]-2,5-diaza-bicyclo[2.2.1]hept-2-yl}-2-[4-(4-fluoro-phenoxy)-phenyl]-ethanone] yielded a half-inhibitory concentration (IC50) of 18300 nM.

The molecule `CC(c1c(F)cccc1Cl)N1CC2CC1CN2C(=O)Cc1ccc(Oc2ccc(F)cc2)cc1` (single isomer, unassigned) [Example 165, 1-{5-[1-(2-Chloro-6-fluoro-phenyl)-ethyl]-2,5-diaza-bicyclo[2.2.1]hept-2-yl}-2-[4-(4-fluoro-phenoxy)-phenyl]-ethanone] gave an IC50 of 1230 nM.

On to `CC(c1c(F)cccc1Cl)N1CC2CC1CN2C(=O)Cc1ccc(Oc2ccc(F)cc2)cc1` (single isomer, unassigned) [Example 166, 1-{5-[1-(2-Chloro-6-fluoro-phenyl)-ethyl]-2,5-diaza-bicyclo[2.2.1]hept-2-yl}-2-[4-(4-fluoro-phenoxy)-phenyl]-ethanone], for which it took 3910 nM to reach half-maximal inhibition (IC50).
